Test results: US20260241049A1, “Radiopharmaceutical Compositions Targeting Glypican-3 and Uses Thereof” (RayzeBio, Inc., priority 2023, published 2026)
Starred links: 1 amine or outer side, 2 acyl side, 3 side chain; linkers in the order of their positions; H or OH if unused. Positions of bridges follow the written chain, without caps; N, C: chain ends. Non-standard residues stand in square brackets, D forms with d. Residues, ends and D or L forms follow the SMILES beside them. Groups on a side chain read outwards from the residue. *: point of attachment. Phe(4-(1-Me-pyrazol-4-yl)) = Cn1cc(-c2ccc(C[C@H](N)C(=O)O)cc2)cn1; NMeAla(isoquinolin-7-yl) = CN[C@@H](Cc1ccc2ccncc2c1)C(=O)O; DOTA = O=C(O)CN1CCN(CC(=O)O)CCN(CC(=O)*)CCN(CC(=O)O)CC1; Phe(4-CH2COOH) = N[C@@H](Cc1ccc(CC(=O)O)cc1)C(=O)O; 3Pal(6-Ph) = N[C@@H](Cc1ccc(-c2ccccc2)nc1)C(=O)O; Phe(4-COOH) = N[C@@H](Cc1ccc(C(=O)O)cc1)C(=O)O; Piperazinyl(4-CH2COOH) = O=C(O)CN1CCN(*)CC1; NMe2Nal = CN[C@@H](Cc1ccc2ccccc2c1)C(=O)O; AEF = NCCOc1ccc(C[C@H](N)C(=O)O)cc1; NMeI = CC[C@H](C)[C@H](NC)C(=O)O; NMeQ = CN[C@@H](CCC(N)=O)C(=O)O; NMehCys = CN[C@@H](CCS)C(=O)O; NMehSer = CN[C@@H](CCO)C(=O)O; NMeK = CN[C@@H](CCCCN)C(=O)O; NMeC = CN[C@@H](CS)C(=O)O; Carboxymethyl = O=C(O)C*; NMeA = CN[C@@H](C)C(=O)O; CO = O=C([*:1])[*:2]

B1: Macrocyclic peptide of Example 2-33 (SEQ ID No. 50) (peptide)
peptide: XSDXFTIXFGXC
modifications: not fully specified; MeDapCOpipzaa-MeHseMe-D-MeDapCOpipzaa-F4COO-TMe-I-Yae-MeNal2-G-3Py6Ph-MeC-NH2; thioether ring from N-terminal acetyl to MeC12
B2: Macrocyclic peptide of Example 2-37 (SEQ ID No. 54) (peptide)
peptide: XSDXFTIXFGXC
modifications: not fully specified; MeDapCOpipzaa-MeHseMe-D-MeDapCOpipzaa-F4COO-TMe-I-Yae-MeNal27N-G-3Py6Ph-MeC-NH2; thioether ring from N-terminal acetyl to MeC12

molecular target: Human Glypican3-Fc (ACRO Biosystems, GP3-H5258) (human) (UniProt P51654); test: SPR (Biacore T200), Method B-3: Glypican3-Fc captured on Protein A chip, peptide as analyte; conditions: not given

Molecule | Kd [nM]
B1 | 0.3
B2 | 1

molecular target: Human Glypican3-Fc (Homo sapiens, UniProt P51654); test: SPR binding to Glypican-3, Method B-2 (Glypican3-Fc captured by anti-human IgG (Fc) antibody on CM3 chip); conditions: SPR method B-2
Protocol: A CM3 sensor chip (Cytiva) was inserted into a Biacore T200 (Cytiva), primed three times with a running buffer: HBS-P-+, pH 7.4 (Cytiva), and equilibrated at a flow rate of 30 μL/min. Using the Anti-Fc Capture Kit (Cytiva), 50 LL each of 60 mM EDC solution (Cytiva) and 650 mM NHS solution (Cytiva) were mixed, and then reacted at a flow rate of 10 μL/min for 420 seconds, 150 μL of […] Anti-human IgG (Fc) Antibody solution was prepared by diluting with 10 mM acetic acid solution (pH 5.0), reacted at a flow rate of 10 μL/min for 420 seconds, and immobilized on a CM3 sensor chip. After immobilization, 1.0 M ethanolamine aqueous solution (Cytiva) was allowed to react for 420 seconds at a flow rate of 10 μL/min for capping. Human Glypican3-Fc (ACRO Biosystems, GP3-H5258) was allowed to react for 60 seconds at a flow rate of 10 μL/min. After capturing human Glypican3-Fc, a peptide solution prepared to 10 mM in DMSO solution was diluted with a running buffer to a final concentration of 10 μM. After that, 5 serial dilution series (100 nM, 50 nM, 25 nM, 10 nM, 5 nM) of peptide solutions were prepared. Using the above samples, peptide kinetics for Glypican3 was obtained by SPR measurement. Kinetics evaluation of Glypican3 was performed by SPR measurements at a flow rate of 10 μL/min. setting the association time to 120 seconds and the disassociation time to 600 seconds.
(§1) The obtained data by Method B-1, Method B-2, Method B-3 and Method B-4 were analyzed by follow. Single Cycle Kinetics was used as the kinetics evaluation model, and curve fitting was performed using Biacore T200 Evaluation Software Version 3.0 (Cytiva). The obtained sensorgram was subjected to curve fitting by the method of least squares and obtained KD values of the macrocyclic peptides in this disclosure for Glypican 3 protein are shown in Table 18.

Molecule | Kd [nM]
CC[C@H](C)[C@@H]1NC(=O)[C@H](Cc2ccc(C(=O)O)cc2)NC(=O)[C@H](CCC(N)=O)N(C)C(=O)[C@H](CC(=O)O)NC(=O)[C@H](CCOC)N(C)C(=O)[C@H](CCCCNC(=O)CN2CCN(CC(=O)O)CCN(CC(=O)O)CCN(CC(=O)O)CC2)N(C)C(=O)CSC[C@@H](C(N)=O)N(C)C(=O)[C@H](Cc2ccc(-c3ccccc3)nc2)NC(=O)CNC(=O)[C@H](Cc2ccc3ccccc3c2)N(C)C(=O)[C@H](Cc2ccc(CC(=O)O)cc2)NC(=O)[C@H]([C@@H](C)CC)NC1=O [Lu-C-21] ({CH2CO}-[NMeK](DOTA)[NMehSer](Me)D[NMeQ][Phe(4-COOH)]II[Phe(4-CH2COOH)][NMe2Nal]G[3Pal(6-Ph)][NMeC]-NH2; thioether N-12) | 1.04
CC[C@H](C)[C@@H]1NC(=O)[C@H](Cc2ccc(C(=O)O)cc2)NC(=O)[C@H](CCC(N)=O)N(C)C(=O)[C@H](CC(=O)O)NC(=O)[C@H](CCC(N)=O)N(C)C(=O)[C@H](C)N(C)C(=O)CSC[C@@H](C(N)=O)N(C)C(=O)[C@H](Cc2ccc(-c3ccccc3)nc2)NC(=O)CNC(=O)[C@H](Cc2ccc3ccccc3c2)N(C)C(=O)[C@H](Cc2ccc(C(=O)O)cc2)NC(=O)[C@H]([C@@H](C)CC)NC1=O [Conjugate 2-23] ({CH2CO}-[NMeA][NMeQ]D[NMeQ][Phe(4-COOH)]II[Phe(4-COOH)][NMe2Nal]G[3Pal(6-Ph)][NMeC]-NH2; thioether N-12) | 1.5
CC[C@H](C)[C@@H]1NC(=O)[C@H](Cc2ccc(C(=O)O)cc2)NC(=O)[C@H](CCC(N)=O)N(C)C(=O)[C@H](CC(=O)O)NC(=O)[C@H]([C@@H](C)CC)N(C)C(=O)[C@H](CCCCNC(=O)[C@@H](Cc2ccccc2)NC(=O)CN2CCN(CC(=O)O)CCN(CC(=O)O)CCN(CC(=O)O)CC2)N(C)C(=O)CSC[C@@H](C(N)=O)N(C)C(=O)[C@H](Cc2ccc(-c3ccccc3)nc2)NC(=O)CNC(=O)[C@H](Cc2ccc3ccncc3c2)N(C)C(=O)[C@H](Cc2ccc(OCC(=O)O)cc2)NC(=O)[C@H]([C@@H](C)CC)NC1=O [Lu-C-41] ({CH2CO}-[NMeK]([dF-DOTA])[NMeI]D[NMeQ][Phe(4-COOH)]IIY(Carboxymethyl)[NMeAla(isoquinolin-7-yl)]G[3Pal(6-Ph)][NMeC]-NH2; thioether N-12) | 0.8
CC[C@H](C)[C@@H]1NC(=O)[C@H]([C@@H](C)OC)NC(=O)[C@H](Cc2ccc(C(=O)O)cc2)NC(=O)[C@H](CCC(N)=O)N(C)C(=O)[C@H](CC(=O)O)NC(=O)[C@H](CCOC)N(C)C(=O)[C@H](CCC(N)=O)N(C)C(=O)CSC[C@@H](C(N)=O)N(C)C(=O)[C@H](Cc2ccc(-c3ccccc3)nc2)NC(=O)CNC(=O)[C@H](Cc2ccc3ccccc3c2)N(C)C(=O)[C@H](Cc2ccc(OCCNC(=O)N3CCN(CC(=O)O)CC3)cc2)NC1=O [Conjugate 2-19] ({CH2CO}-[NMeQ][NMehSer](Me)D[NMeQ][Phe(4-COOH)]T(Me)I[AEF]([CO-Piperazinyl(4-CH2COOH)])[NMe2Nal]G[3Pal(6-Ph)][NMeC]-NH2; thioether N-12) | 0.5
CC[C@H](C)[C@@H]1NC(=O)[C@H]([C@@H](C)OC)NC(=O)[C@H](Cc2ccc(C(=O)O)cc2)NC(=O)[C@H](CCC(N)=O)N(C)C(=O)[C@H](CC(=O)O)NC(=O)[C@H](CCOC)N(C)C(=O)[C@H](C)N(C)C(=O)CSC[C@@H](C(N)=O)N(C)C(=O)[C@H](Cc2ccc(-c3ccccc3)nc2)NC(=O)CNC(=O)[C@H](Cc2ccc3ccccc3c2)N(C)C(=O)[C@H](Cc2ccc(OCCNC(=O)CN3CCN(CC(=O)O)CCN(CC(=O)O)CCN(CC(=O)O)CC3)cc2)NC1=O [Lu-C-44] ({CH2CO}-[NMeA][NMehSer](Me)D[NMeQ][Phe(4-COOH)]T(Me)I[AEF](DOTA)[NMe2Nal]G[3Pal(6-Ph)][NMeC]-NH2; thioether N-12) | 1

molecular target: T1, human Glypican3 (Homo sapiens, UniProt P51654); test: SPR binding to Glypican-3, Method B-1 (Glypican3 immobilized on CM3 chip, Biacore T200); conditions: SPR method B-1
T1 construct: purchased R&D systems 2119-GP
Protocol: A CM3 sensor chip (Cytiva) was inserted into a Biacore T200 (Cytiva), primed three times with a running buffer: HBS-P+, pH 7.4 (Cytiva), and equilibrated at a flow rate of 30 μL/min. Ligand immobilization was performed at a flow rate of 10 μL/min. 50 μL each of 60 mM EDC solution (Cytiva) and 650 mM NHS solution (Cytiva) were mixed, and then reacted at a flow rate of 10 μL/min for 420 seconds, 150 μL of 0.2 μM human Glypican3 (R&D systems, catalog number: 2119-GP) solution which was prepared by diluting with 10 mM acetic acid solution (pH 5.0), was reacted at a flow rate of 10 μL/min for 420 seconds, and Glypican3 was immobilized on the CM3 sensor chip. After immobilization, 1.0 M ethanolamine aqueous solution (Cytiva) was allowed to react for 420 seconds at a flow rate of 10 μL/min for capping. A peptide lysate prepared to 10 mM in DMSO solution was diluted with running buffer to a final concentration of 10 μM peptide lysate. After that, 5 serial dilution series (100 nM, 50 nM, 25 nM, 10 nM, 5 nM) of peptide solutions were prepared. Using the above samples, peptide kinetics for Glypican3 was obtained by SPR measurement. Kinetics evaluation of Glypican3 was performed by SPR measurements at a flow rate of 10 μL/min, setting the association time to 120 seconds and the disassociation time to 600 seconds.
as §1

Molecule | Kd [nM]
CC[C@H](C)[C@@H]1NC(=O)[C@H](Cc2ccc(C(=O)O)cc2)NC(=O)[C@H](CCC(N)=O)N(C)C(=O)[C@H](CCC(N)=O)NC(=O)[C@H]([C@@H](C)CC)N(C)C(=O)[C@H](CCCCNC(C)=O)N(C)C(=O)CSC[C@@H](C(N)=O)N(C)C(=O)[C@H](Cc2ccc(-c3cnn(C)c3)cc2)NC(=O)CNC(=O)[C@H](Cc2ccc3ccccc3c2)N(C)C(=O)[C@H](Cc2ccc(C(=O)O)cc2)NC(=O)[C@H]([C@@H](C)CC)NC1=O [Conjugate 2-3] ({CH2CO}-[NMeK](Ac)[NMeI]Q[NMeQ][Phe(4-COOH)]II[Phe(4-COOH)][NMe2Nal]G[Phe(4-(1-Me-pyrazol-4-yl))][NMeC]-NH2; thioether N-12) | 1.2
CC[C@H](C)[C@@H]1NC(=O)[C@H](Cc2ccc(C(=O)O)cc2)NC(=O)[C@H](CCC(N)=O)N(C)C(=O)[C@H](CCCCNC(C)=O)NC(=O)[C@H](CCC(N)=O)N(C)C(=O)[C@H](CCC(N)=O)N(C)C(=O)CSC[C@@H](C(N)=O)N(C)C(=O)[C@H](Cc2ccc(-c3cnn(C)c3)cc2)NC(=O)CNC(=O)[C@H](Cc2ccc3ccccc3c2)N(C)C(=O)[C@H](Cc2ccc(C(=O)O)cc2)NC(=O)[C@H]([C@@H](C)CC)NC1=O [Conjugate 2-11] ({CH2CO}-[NMeQ][NMeQ]K(Ac)[NMeQ][Phe(4-COOH)]II[Phe(4-COOH)][NMe2Nal]G[Phe(4-(1-Me-pyrazol-4-yl))][NMeC]-NH2; thioether N-12) | 2.5
CC[C@H](C)[C@@H]1NC(=O)[C@H]([C@@H](C)OC)NC(=O)[C@H](Cc2ccc(C(=O)O)cc2)NC(=O)[C@H](CCC(N)=O)N(C)C(=O)[C@H](CC(=O)O)NC(=O)[C@H](CCC(N)=O)N(C)C(=O)[C@H](CCC(N)=O)N(C)C(=O)SCC[C@@H](C(N)=O)N(C)C(=O)[C@H](Cc2ccc(-c3cnn(C)c3)cc2)NC(=O)CNC(=O)[C@H](Cc2ccc3ccccc3c2)N(C)C(=O)[C@H](Cc2ccc(C(=O)O)cc2)NC1=O [Conjugate 2-15] ([NMeQ][NMeQ]D[NMeQ][Phe(4-COOH)]T(Me)I[Phe(4-COOH)][NMe2Nal]G[Phe(4-(1-Me-pyrazol-4-yl))][NMehCys]-NH2; linker N-12 via CO) | 1.8
CC[C@H](C)[C@@H]1NC(=O)[C@H](Cc2ccc(C(=O)O)cc2)NC(=O)[C@H](CCC(N)=O)N(C)C(=O)[C@H](CC(=O)O)NC(=O)[C@H]([C@@H](C)CC)N(C)C(=O)[C@H](CCCCNC(C)=O)N(C)C(=O)CSC[C@@H](C(N)=O)N(C)C(=O)[C@H](Cc2ccc(-c3ccccc3)nc2)NC(=O)CNC(=O)[C@H](Cc2ccc3ccccc3c2)N(C)C(=O)[C@H](Cc2ccc(C(=O)O)cc2)NC(=O)[C@H]([C@@H](C)CC)NC1=O [Conjugate 2-1] ({CH2CO}-[NMeK](Ac)[NMeI]D[NMeQ][Phe(4-COOH)]II[Phe(4-COOH)][NMe2Nal]G[3Pal(6-Ph)][NMeC]-NH2; thioether N-12) | 0.5
CC[C@H](C)[C@@H]1NC(=O)[C@H](Cc2ccc(C(=O)O)cc2)NC(=O)[C@H](CCC(N)=O)N(C)C(=O)[C@H](CC(=O)O)NC(=O)[C@H]([C@@H](C)CC)N(C)C(=O)[C@H](CCCCNC(C)=O)N(C)C(=O)CSC[C@@H](C(N)=O)N(C)C(=O)[C@H](Cc2ccc(-c3cnn(C)c3)cc2)NC(=O)CNC(=O)[C@H](Cc2ccc3ccccc3c2)N(C)C(=O)[C@H](Cc2ccc(C(=O)O)cc2)NC(=O)[C@H]([C@@H](C)CC)NC1=O [Conjugate 2-2] ({CH2CO}-[NMeK](Ac)[NMeI]D[NMeQ][Phe(4-COOH)]II[Phe(4-COOH)][NMe2Nal]G[Phe(4-(1-Me-pyrazol-4-yl))][NMeC]-NH2; thioether N-12) | 1.5
